Reference: patent US20070059364A1, “Active substance combination comprising a compound with npy receptor affinity and a compound with 5-ht6 receptor affinity” (Laboratorios Del Dr. Esteve S.A., priority 2003, published 2007)

Row | SMILES | melting point
1 | Cl.O=C(CN1CCC(N2C(=O)OCc3ccccc32)CC1)Nc1ccc(C(F)(F)F)cc1 | 276 to 284 °C
2 | CCn1c2ccccc2c2cc(NC(=O)CN3CCC(N4C(=O)OCc5cccc(C)c54)CC3)ccc21.Cl | 229 to 232 °C
3 | Cl.O=C(CN1CCC(N2C(=O)OCc3cc(Cl)ccc32)CC1)Nc1ccc2c(c1)-c1ccccc1C2=O | 245 to 249 °C
4 | CN(C)CCn1ccc2ccc(NS(=O)(=O)c3ccc4ccccc4c3)cc21 [Example 2f, N-[1-(2-Dimethylaminoethyl)-1H-indol-6-yl]-naphthalene-2-sulfonamide] | 140 to 143 °C
5 | Cc1ccc2c(c1)COC(=O)N2C1CCN(CC(=O)Nc2ccc3c(c2)C(=O)c2ccccc2-3)CC1.Cl | 281 to 285 °C
6 | O=S(=O)(Nc1ccc2c(ccn2CCCN2CCCCC2)c1)c1ccc2ccccc2c1 | 92 to 108 °C
7 | CCN(CC)CCc1c[nH]c2ccc(NS(=O)(=O)c3sc4ccc(Cl)cc4c3C)cc12 [Example 1c, N-[3-(2-diethylaminoethyl)-1H-indol-5-yl]-5-chloro-3-methylbenzo[b]thiophene-2-sulphonamide] | 170 to 173 °C
8 | CCCCN(CCCC)CCc1c[nH]c2ccc(NS(=O)(=O)c3sc4ccc(Cl)cc4c3C)cc12 | 79 to 80 °C
9 | CN(C)CCc1c[nH]c2ccc(NS(=O)(=O)c3cccc4c(Cl)cccc34)cc12 | 201 to 203 °C
10 | Cc1cccc2c1N(C1CCN(CC(=O)Nc3ccc4c(c3)C(=O)c3ccccc3-4)CC1)C(=O)OC2.Cl | > 300 °C (dec.)
11 | CN(C)CCc1c[nH]c2ccc(NS(=O)(=O)c3ccc4ccccc4c3)cc12 | 180 to 190 °C
12 | Cl.O=C(CN1CCC(N2C(=O)OCc3cc(Cl)ccc32)CC1)Nc1ccc2c(c1)C(=O)c1ccccc1-2 | > 300 °C (dec.)
13 | Cl.O=C(CN1CCC(N2C(=O)OCc3ccccc32)CC1)Nc1cccc(C(=O)c2ccccc2)c1 | 214 to 218 °C
14 | O=S(=O)(Nc1ccc2[nH]cc(CCN3CCOCC3)c2c1)c1cccc2ccccc12 | 218 to 220 °C
15 | Cl.O=C(CN1CCC(N2C(=O)OCc3cc(Cl)ccc32)CC1)Nc1ccccc1C(=O)c1ccccc1 | 167 to 178 °C
16 | CN(C)CCn1ccc2ccc(NS(=O)(=O)c3cccc4ccccc34)cc21 [Example 3f, N-[1-(2-Dimethylaminoethyl)-1H-indol-6-yl]-naphthalene-1-sulfonamide] | 139 to 142 °C
17 | CN1CC=C(c2cn(S(=O)(=O)C3CCCCC3)c3ccc([N+](=O)[O-])cc23)CC1 [Example 1h, 1-Cyclohexanesulfonyl-3-(1-methyl-1,2,3,6-tetrahydropyridine-4-yl)-5-nitro-1H-indole] | 155 to 160 °C
18 | CCN(c1ccccc1)c1ccc(NC(=O)CN2CCC(N3C(=O)OCc4ccccc43)CC2)cc1.Cl | 254 to 257 °C

Row | SMILES | melting point
19 | Cl.O=C(CCN1CCC(N2C(=O)OCc3ccccc32)CC1)Nc1ccc2c(c1)-c1ccccc1C2=O | 240 to 242 °C
20 | Cl.N#Cc1ccc(NC(=O)CN2CCC(N3C(=O)OCc4ccccc43)CC2)cc1 | 268 to 282 °C
21 | O=S(=O)(Nc1ccc2[nH]cc(CCN3CCOCC3)c2c1)c1cccc2cccnc12 | 234 to 235 °C
22 | CN(C)CCc1c[nH]c2ccc(NS(=O)(=O)c3ccc(-c4ccccc4)cc3)cc12 | 184 to 186 °C
23 | CCN(CC)CCc1c[nH]c2ccc(NS(=O)(=O)c3cccc4ccccc34)cc12.Cl [Example 3c, Hydrochloride N-[3-(2-diethylaminoethyl)-1H-indol-5-yl]naphthalene-1-sulphonamide] | 255 to 257 °C
24 | Cc1ccc2c(c1)COC(=O)N2C1CCN(CC(=O)Nc2ccc3c(c2)C(O)c2ccccc2-3)CC1.Cl (centres unmarked) | 196 to 199 °C
25 | O=S(=O)(Nc1ccc2[nH]cc(CCN3CCCC3)c2c1)c1cccc2ccccc12 | 212 to 214 °C
26 | CN1CCN(Cc2c[nH]c3ccc(NS(=O)(=O)/C=C/c4ccccc4)cc23)CC1 | 203 °C (dec.)
27 | Cl.N#Cc1ccc(NC(=O)CN2CCC(N3C(=O)OCc4cc(Cl)ccc43)CC2)cc1 | 274 to 278 °C
28 | Cc1cc2cc(NS(=O)(=O)c3ccc4ccccc4c3)ccc2n1CCN(C)C | 199 to 200 °C
29 | CN(C)CCc1c[nH]c2ccc(NS(=O)(=O)c3cccc4nsnc34)cc12 | 192 °C
30 | Cc1cccc2c1N(C1CCN(CC(=O)Nc3ccccc3C(=O)c3ccccc3)CC1)C(=O)OC2.Cl | 168 to 176 °C
31 | Cc1cccc2c1N(C1CCN(CC(=O)Nc3ccc4c(c3)-c3ccccc3C4O)CC1)C(=O)OC2.Cl (centres unmarked) | 207 to 212 °C
32 | Cl.O=C(CN1CCC(N2C(=O)OCc3cc(Cl)ccc32)CC1)Nc1ccc2c(c1)-c1ccccc1C2O (centres unmarked) | 219 to 222 °C
33 | CCN(c1ccccc1)c1ccc(NC(=O)CN2CCC(N3C(=O)OCc4ccc(C)cc43)CC2)cc1 | 199 °C
34 | O=C(CN1CCC(N2C(=O)OCc3c(F)cccc32)CC1)Nc1ccc2[nH]c3ccccc3c2c1 | 195 °C
35 | Cc1ccc2c(c1)COC(=O)N2C1CCN(CC(=O)Nc2ccc3c(c2)-c2ccccc2C3=O)CC1 | 237 to 239 °C
36 | Cl.O=C(CN1CCC(N2C(=O)OCc3ccccc32)CC1)Nc1ccc(Oc2ccccc2)cc1 | 242 to 248 °C

Other lines, results leading:

Row | melting point | SMILES
37 | 246 to 249 °C | CN1CCN(CCc2c[nH]c3ccc(NS(=O)(=O)c4cccc5c(Cl)cccc45)cc23)CC1 [Example 53c, N-[3-(4-methylpiperazin-1-yl)ethyl-1H-indol-5-yl]-5-chloronaphthalene-1-sulphonamide]
38 | 254 to 256 °C | CN1CCC(c2c[nH]c3ccc(NS(=O)(=O)c4cccc5ccccc45)cc23)CC1 [Example 12c, N-[3-(1-methylpiperidin-4-yl)-1H-indol-5-yl]naphthalene-1-sulphonamide]
39 | 203 to 205 °C | CN(C)CCc1c[nH]c2ccc(NS(=O)(=O)c3cccc4ccccc34)cc12 [Example 8c, N-[3-(2-dimethylaminoethyl)-1H-indol-5-yl]naphthalene-1-sulphonamide]
40 | 53 to 56 °C | CCN(CC)CCc1c[nH]c2ccc(NS(=O)(=O)c3sc4ccc(Cl)cc4c3C)cc12 [24e]
41 | 138 to 140 °C | CN(C)CCn1ccc2cc(NS(=O)(=O)c3ccc(Oc4ccccc4)cc3)ccc21 [Example 7e, N-[1-(2-dimethylaminoethyl)-1H-indole-5-yl]-4-phenoxybenzenesulfonamide]
42 | 126 to 128 °C | Cc1ccc(S(=O)(=O)Nc2ccc3c(ccn3CCN(C)C)c2)cc1 [Example 8e, N-[1-(2-dimethylaminoethyl)-1H-indole-5-yl]-4-methylbenzenesulfonamide]
43 | 161 to 164 °C | CN(C)CCn1ccc2cc(NS(=O)(=O)c3cccc4cccnc34)ccc21 [Example 6e, N-[1-(2-dimethylaminoethyl)-1H-indole-5-yl]-quinoline-8-sulfonamide]
44 | 178 to 181 °C | O=S(=O)(Nc1ccc2ccn(CCN3CCCC3)c2c1)c1ccc(-c2ccccc2)cc1 [Example 13f, 4-Phenyl-N-(1-(2-(pyrrolidin-1-yl)ethyl)-1H-indol-6-yl)-benzenesulfonamide]
45 | 196 to 199 °C | O=S(=O)(Nc1cccc2ccn(CCN3CCCC3)c12)c1cccc2ccccc12 [Example 6g, N-(1-(2-(pyrrolidin-1-yl)ethyl)-1H-indol-7-yl)naphthalene-1-sulfonamide]
46 | 180 to 181 °C | CCN(CC)CCc1c[nH]c2ccc(NS(=O)(=O)c3ccc(Cl)s3)cc12 [Example 6c, N-[3-(2-diethylaminoethyl)-1H-indol-5-yl]-5-chlorothiophene-2-sulphonamide]
47 | 176 to 177 °C | Cc1cc2cc(NS(=O)(=O)c3ccc(-c4ccccc4)cc3)ccc2n1CCN(C)C [Example 36e, N-(1-(2-(dimethylamino)ethyl)-2-methyl-1H-indol-5-yl)-4-phenylbenzenesulfonamide]
48 | 142 to 144 °C | Cc1c(S(=O)(=O)Nc2ccc3[nH]cc(C4CCN5CCCC5C4)c3c2)sc2ccc(Cl)cc12 (centres unmarked) [Example 38c, N-[3-(octahydroindolizin-7-yl)-1H-indol-5-yl]-5-chloro-3-methylbenzo[b]thiophene-2-sulphonamide]
49 | 148 to 152 °C | Cc1c(S(=O)(=O)Nc2ccc3[nH]cc(CN(C)C)c3c2)sc2ccc(Cl)cc12 [Example 30c, N-[3-dimethylaminomethyl-1H-indol-5-yl]-5-chloro-3-methylbenzo[b]thiophene-2-sulphonamide]
50 | 183 to 184 °C | Cc1cc2cc(NS(=O)(=O)c3cccc4ccccc34)ccc2n1CCN(C)C [Example 34e, N-(1-(2-(dimethylamino)ethyl)-2-methyl-1H-indol-5-yl)-naphthalene-1-sulfonamide]
51 | 225 to 228 °C | O=S(=O)(Nc1ccc2[nH]cc(CCN3CCOCC3)c2c1)c1ccc(-c2ccccc2)cc1 [Example 51c, N-{3-[2-(morpholin-4-yl)ethyl]-1H-indol-5-yl}-4-phenylbenzenesulphonamide]
52 | 114 to 116 °C | CN(C)CCn1ccc2cc(NS(=O)(=O)c3cccc(Br)c3)ccc21 [Example 13e, N-[1-(2-dimethylaminoethyl)-1H-indole-5-yl]-3-bromobenzenesulfonamide]
53 | 212 °C (dec.) | CN1CCC(c2c[nH]c3ccc(NS(=O)(=O)c4cccc5ccccc45)cc23)CC1.Cl [Example 13c, N-[3-(1-methylpiperidin-4-yl)-1H-indol-5-yl]naphthalene-1-sulphonamide hydrochloride]
54 | 92 to 96 °C | O=S(=O)(Nc1ccc2c(ccn2CCCN2CCCCC2)c1)c1cccc2c(Cl)cccc12 [Example 52e, 5-chloro-N-(1-(3-(piperidin-1-yl)propyl)-1H-indol-5-yl)naphthalene-1-sulfonamide]
55 | 138 to 140 °C | O=S(=O)(Nc1ccc2c(ccn2CCN2CCCC2)c1)c1ccc2ccccc2c1 [Example 16e, N-[1-(2-pyrrolidine-1-yl-ethyl)-1H-indole-5-yl]-naphthalene-2-sulfonamide]
56 | 203 to 205 °C | Cc1c(S(=O)(=O)Nc2ccc3c(c2)cc(C)n3CCN(C)C)sc2ccc(Cl)cc12 [Example 32e, 5-chloro-N-(1-(2-(dimethylamino)ethyl)-2-methyl-1H-indol-5-yl)-3-methylbenzo[b]thiophene-2-sulfonamide]
